Measured values reported in ChEMBL document CHEMBL3045687, “Anti-microbial benzimidazole derivatives: synthesis and in vitro biological evaluation” (2012).

System: Escherichia coli
Experiment: Antimicrobial activity against Escherichia coli assessed as zone of inhibition at 12.5 ug/ml after 18 to 24 hr by two-fold dilution technique relative to control
Assay type: functional
Settings: not given

**Q.** With `O=[N+]([O-])c1ccc2[nH]c(/C=C/c3ccc(O)cc3)nc2c1` as the molecule, how does the inhibition at 12.5 µg/mL read?
**A.** Its inhibition at 12.5 µg/mL is 76.9%.

**Q.** How did the inhibition at 12.5 µg/mL turn out when `COc1ccc(/C=C/c2nc3cc(Cl)ccc3[nH]2)cc1OC` was run?
**A.** The inhibition at 12.5 µg/mL was 80.5%.

**Q.** Which inhibition at 12.5 µg/mL does the source give for `O=[N+]([O-])c1ccc2[nH]c(/C=C/c3ccc(Cl)cc3)nc2c1` here?
**A.** The inhibition at 12.5 µg/mL was 80.7%.

**Q.** How did the inhibition at 12.5 µg/mL turn out when `Oc1ccc(/C=C/c2nc3cc(Cl)ccc3[nH]2)cc1` was run?
**A.** The inhibition at 12.5 µg/mL was 79.9%.

**Q.** How did the inhibition at 12.5 µg/mL turn out when `O=[N+]([O-])c1ccc(/C=C/c2nc3cc([N+](=O)[O-])ccc3[nH]2)cc1` was run?
**A.** The inhibition at 12.5 µg/mL was 77.1%.

**Q.** With `COc1ccc(/C=C/c2nc3cc([N+](=O)[O-])ccc3[nH]2)c(OC)c1OC` as the molecule, how does the inhibition at 12.5 µg/mL read?
**A.** Its inhibition at 12.5 µg/mL is 76.6%.

**Q.** Which inhibition at 12.5 µg/mL does the source give for `Clc1ccc2[nH]c(/C=C/c3ccccc3)nc2c1` here?
**A.** The inhibition at 12.5 µg/mL was 77.7%.

**Q.** How did the inhibition at 12.5 µg/mL turn out when `COc1ccc(/C=C/c2nc3cc(Cl)ccc3[nH]2)c(OC)c1OC` was run?
**A.** Its inhibition at 12.5 µg/mL is 80.5%.

Same assay, conditions: read-out: DIZ

**Q.** How did the zone of inhibition at 12.5 µg/mL turn out when `O=C(O)c1cn(C2CC2)c2cc(N3CCNCC3)c(F)cc2c1=O` [CIPROFLOXACIN] was run?
**A.** Its zone of inhibition at 12.5 µg/mL is 15.9 mm.

System: Staphylococcus aureus
Experiment: Antimicrobial activity against Staphylococcus aureus assessed as zone of inhibition at 12.5 ug/ml after 18 to 24 hr by two-fold dilution technique relative to control
Assay type: functional
Settings: not given

**Q.** With `O=[N+]([O-])c1ccc2[nH]c(/C=C/c3ccc(O)cc3)nc2c1` as the molecule, how does the inhibition at 12.5 µg/mL read?
**A.** Its inhibition at 12.5 µg/mL is 72.1%.

**Q.** `COc1ccc(/C=C/c2nc3cc(Cl)ccc3[nH]2)cc1OC` was tested. Which inhibition at 12.5 µg/mL did it give?
**A.** Its inhibition at 12.5 µg/mL is 75.2%.

**Q.** How did the inhibition at 12.5 µg/mL turn out when `O=[N+]([O-])c1ccc2[nH]c(/C=C/c3ccc(Cl)cc3)nc2c1` was run?
**A.** The inhibition at 12.5 µg/mL was 82.1%.

**Q.** For `Oc1ccc(/C=C/c2nc3cc(Cl)ccc3[nH]2)cc1`, which inhibition at 12.5 µg/mL is on record?
**A.** The inhibition at 12.5 µg/mL was 70.8%.

**Q.** Which inhibition at 12.5 µg/mL does the source give for `O=[N+]([O-])c1ccc(/C=C/c2nc3cc([N+](=O)[O-])ccc3[nH]2)cc1` here?
**A.** Its inhibition at 12.5 µg/mL is 69.7%.

**Q.** With `COc1ccc(/C=C/c2nc3cc([N+](=O)[O-])ccc3[nH]2)c(OC)c1OC` as the molecule, how does the inhibition at 12.5 µg/mL read?
**A.** Its inhibition at 12.5 µg/mL is 75.2%.

**Q.** Which inhibition at 12.5 µg/mL does the source give for `Clc1ccc2[nH]c(/C=C/c3ccccc3)nc2c1` here?
**A.** The inhibition at 12.5 µg/mL was 76.2%.

**Q.** `COc1ccc(/C=C/c2nc3cc(Cl)ccc3[nH]2)c(OC)c1OC` was tested. Which inhibition at 12.5 µg/mL did it give?
**A.** The inhibition at 12.5 µg/mL was 72.7%.

Same assay, conditions: read-out: DIZ

**Q.** Which zone of inhibition at 12.5 µg/mL does the source give for `O=C(O)c1cn(C2CC2)c2cc(N3CCNCC3)c(F)cc2c1=O` [CIPROFLOXACIN] here?
**A.** The zone of inhibition at 12.5 µg/mL was 14.4 mm.

System: Candida albicans
Experiment: Antimicrobial activity against Candida albicans assessed as zone of inhibition at 25 ug/ml after 48 hr by two-fold dilution technique relative to control
Assay type: functional
Settings: not given

**Q.** For `O=[N+]([O-])c1ccc2[nH]c(/C=C/c3ccc(O)cc3)nc2c1`, which inhibition at 25 µg/mL is on record?
**A.** Its inhibition at 25 µg/mL is 75%.

**Q.** `COc1ccc(/C=C/c2nc3cc(Cl)ccc3[nH]2)cc1OC` was tested. Which inhibition at 25 µg/mL did it give?
**A.** Its inhibition at 25 µg/mL is 92.4%.

**Q.** `O=[N+]([O-])c1ccc2[nH]c(/C=C/c3ccc(Cl)cc3)nc2c1` was tested. Which inhibition at 25 µg/mL did it give?
**A.** The inhibition at 25 µg/mL was 84.2%.

**Q.** Which inhibition at 25 µg/mL does the source give for `Oc1ccc(/C=C/c2nc3cc(Cl)ccc3[nH]2)cc1` here?
**A.** Its inhibition at 25 µg/mL is 75.6%.

**Q.** With `O=[N+]([O-])c1ccc(/C=C/c2nc3cc([N+](=O)[O-])ccc3[nH]2)cc1` as the molecule, how does the inhibition at 25 µg/mL read?
**A.** The inhibition at 25 µg/mL was 75.3%.

**Q.** With `COc1ccc(/C=C/c2nc3cc([N+](=O)[O-])ccc3[nH]2)c(OC)c1OC` as the molecule, how does the inhibition at 25 µg/mL read?
**A.** Its inhibition at 25 µg/mL is 82.5%.

**Q.** With `Clc1ccc2[nH]c(/C=C/c3ccccc3)nc2c1` as the molecule, how does the inhibition at 25 µg/mL read?
**A.** The inhibition at 25 µg/mL was 88.5%.

**Q.** `COc1ccc(/C=C/c2nc3cc(Cl)ccc3[nH]2)c(OC)c1OC` was tested. Which inhibition at 25 µg/mL did it give?
**A.** Its inhibition at 25 µg/mL is 93.1%.

Same assay, conditions: read-out: DIZ

**Q.** How did the zone of inhibition at 25 µg/mL turn out when `OC(Cn1cncn1)(Cn1cncn1)c1ccc(F)cc1F` [FLUCONAZOLE] was run?
**A.** The zone of inhibition at 25 µg/mL was 13.4 mm.
